Laboratory results from patent US9808434B2, “Compound for treating cancer and diabetes” (CITY OF HOPE, priority 2011, dated 2017).

Columns and labels:
3T3-L1 cells [1] = assay: Adipocyte differentiation, Oil Red O staining; format: cell-based, mouse; details: preadipocytes 7 days in differentiating media (DM) + compound
Procedure: Two-day post-confluent 3T3-L1 preadipocyte cells were allowed to differentiate for 7 days in the presence of nothing, DM only, DM+ a test compound (COH-SR1, COH-SR2, COH-SR3, COH-SR4, COH-SR7, LR23 or LR59), or DM+ a positive control (TSA, C75, or Apicidin).
(§1) 3T3-L1 preadipocytes cells were treated with differentiating media (DM) with COH-SR4 (1 μM, 3 μM, or 5 μM) or without for 7 days. […] As used in FIG. 9C, U=undifferentiated, D=differentiated with cocktail media.

[2] = test system: fully differentiated adipocytes; assay: Dedifferentiation of fully differentiated adipocytes, Oil Red O staining; format: cell-based; details: differentiated 7 days, treated additional 3 days
Procedure: Fully differentiated adipocyte cells were differentiated for 7 days and were treated for additional 3 days with DM+ a test compound (COH-SR3, COH-SR7, or LR59), DM+ a positive control (Apicidin, TSA or C75), DM, or nothing (control).

3T3-L1 cells [3] = assay: Intracellular triglyceride contents, AdipoRed Assay; format: cell-based, mouse; details: 7 days in DM + compound
Procedure: Intracellular triglyceride contents were measured using AdipoRed Assay™ and the results were shown in relative fluorescence units (RFU) in FIG. 5.
as §1

U251 = assay: Glioma ATP viability assay, U251; format: cell-based; details: Table 2
Procedure: (§2) Cells of each cell line (U251, U87, PBT-017, PBT018, PBT003 and PBT028) were treated with various concentrations (0˜100 μM) of COH-SR4 for 72 hours. Cell viabilities were determined by ATP viability assays. Data were represented as a ratio to vehicle (DMSO) control, and plotted as mean±SEM (n=12) obtained from 2˜3 experiments (FIG. 34A).
as §2, with “(U87, U251,” for “(U251, U87, PBT-017, PBT018,”, “PVT-017)” for “PBT028)”, “2-3” for “2˜3”, “34B).” for “34A).”
Cells of each cell line were treated with various concentrations (0˜100 μM) of COH-SR4 or various concentrations (0˜1000 μM) of TMZ for 72 hours. Cell viabilities were determined by ATP viability assays. Data were represented as a ratio to untreated cells as control, and plotted as mean±SEM (n=12) obtained from 2˜3 experiments (FIGS. 43A-B).

[4] = test system: NCI-60 human tumor cell lines; assay: NCI-60 DTP Human Tumor Cell Line Drug Screening; format: cell-based; details: leukemia, NSCLC, colon, CNS, melanoma, ovarian, renal, prostate, breast lines
Excerpt: Moreover, preliminary data from the NCI-60 DTP Human Tumor Cell Line Drug Screening (http://dtp.nci.nih.gov/branches/btb/ivclsp.html) further confirmed the observations on these COH-SR compounds. […] A value of 100 meant no growth inhibition. A value of 20 meant 80% growth inhibition. A value of 0 meant no net growth over the course of the experiment. A value of −40 meant 40% lethality. A value of −100 meant all cells were dead.

[5] = test system: undifferentiated 3T3-L1 cells; assay: Preadipocyte viability, MTT assay; format: cell-based, mouse; details: 3 days, 2.5-25 μM
Procedure: Undifferentiated 3T3-LI cells were treated with COH-SR2, COH-SR3, COH-SR4, COH-SR7, LR23 or LR59 for 3 days at a concentration of 2.5 μM, 5 μM, 10 μM, 15 μM, 20 μM, or 25 μM. The cell viability for each treatment was determined by MTT assay (FIG. 7).

HL-60 cells [6] = assay: HL-60 cell viability, MTT assay; details: for cytotoxicity and cell proliferation: 48 hours, 1-15 μM; for IC50: Homo sapiens, HL-60, 48 h
Procedure: Three independent experiments were carried out with 3 duplications each, and data are shown as mean±SE.

HL-60 cells [7] = assay: Differentiation of HL-60 cells (Giemsa-Wright, NBT, CD11b/CD14); format: cell-based, human; details: 48 hours, 2-10 μM
Procedure: HL-60 cells were incubated with a test compound at various concentrations (2˜10 μM), DMSO, or without any test compound for 48 hours, and then examined for morphologic changes by Giemsa-Wright stain. The results were observed microscopically and shown in FIG. 13 at a magnification of ×400. […] Such results were similar to cells treated with DMSO or all-trans retinoic acid (ATRA), wherein DMSO or ATRA terminally differentiated HL-60 cells into myeloid cells (FIG. 13).
HL-60 cells (2.5×10^5) were treated with or without a test compound for 48 hours and then stained with NBT, wherein positively-stained cells appeared as purple black (FIG. 14A). NBT positive cells were counted and the overall percentage was calculated based on 200 total cells counted for each treatment. Three˜four independent experiments were carried out, and data are shown as mean±SE (FIG. 14B). This measurement of “oxidative burst” by the NBT assay is a well-known and extensively tested functional marker of HL-60 cell differentiation.
HL-60 cells (2.5×10^5) were incubated with a test compound (COH-SR4 or COH-SR9) at a concentration of 0.5 μM, 1 μM, 2 μM, or 3 μM, or without any COH-SR compound for 48 hours and then assessed for the surface expression of CD11b (FIG. 14C) and CD14 (FIG. 14D) by flow cytometry, respectively. Three-four independent experiments were carried out, and data are shown as mean±SE (FIGS. 14C and 14D).

[8] = test system: HMLE breast cancer cell line; assay: HMLE viability, DIMSCAN assay; format: cell-based, human; details: 3 days, 2-50 μM
Procedure: The effects of COH-SR compounds on breast cancer cells were investigated. Cells from 4T1 or HMLE breast cancer cell line were seeded in 96-well plates (about 2000 cells/well), allowed to proliferate for one day, treated with a COH-SR compound, doxorubicin, paclitaxel, cisplatin, or nothing (control) at a specific dose (3 wells for each treatment) and assayed for cell viability 3 days after using DIMSCAN assay. COH-SR3, COH-SR4, COH-SR9, doxorubicin, paclitaxel, and cisplatin were used at a dosage of 40 nM, 200 nM, 1 μM, 2 μM, 10 μM, or 50 μM for 4T1 breast cancer cell lines. COH-SR14 was used at a dosage of 40 nM, 200 nM, 1 μM, 2 μM, or 10 μM for 4T1 breast cancer cell lines. COH-SR3, COH-SR4, COH-SR9, doxorubicin, paclitaxel, and cisplatin were used at a dosage of 2 μM, 10 μM, or 50 μM for HMLE breast cancer cell lines. COH-SR14 was used at a dosage of 2 μM, or 10 μM for HMLE breast cancer cell lines.

AMPK = AMPK activation in Hela cells, Western blot; format: cell-based; details: 1 hour, 1, 3 or 5 μM
Procedure: Activation of AMPK was associated with the phosphorylation of the α-subunit on Thr-172 of as assessed using phospho-specific antibodies (FIGS. 10A-B). AMPK activation also leads to the increased phosphorylation of the target protein acetyl-CoA carboxylase (ACC) (FIG. 10B).
Cells of each cell lines (Hela, HL-60, and 3T3-L1) were treated for 1 hour with a test compound (COH-SR4, COH-SR9, COH-SR16, or COH-SR18) at a concentration of 1 μM, 3 μM, or 5 μM, or AICAR (5-aminoimidazole-4-carboxamideriboside, an AMPK agonist used as positive control) at a concentration of 500 μM, or none of the above (the untreated cells as negative control). Total cell lysates from the untreated cells and the cells treated with a test compound or AICAR were analyzed by Western blot assay using specific antibodies against phospho-AMPK, phospho-ACC, total AMPK and total ACC.

## 1-(4-chlorobenzyl)-3-dichlorophenyeureido)-4-phenoxyisobutyric acid [LR59]
3T3-L1 cells [1]
  differentiation and accumulation of lipid droplets (Oil Red O staining): dose-dependently inhibited differentiation and accumulation of lipid droplets
[2]
  dedifferentiation of fully differentiated adipocytes: induced dedifferentiation of fully differentiated adipocytes
3T3-L1 cells [3]
  intracellular triglyceride contents (AdipoRed Assay): dose-dependently reduced

## O=c1[nH]cc(F)c(=O)[nH]1 [5-FU]
U251; 72 hours
  IC50: 61 µM

## COc1cc(CCC(=O)CC(=O)CCc2ccc(OC(C)=O)c(OC)c2)ccc1OC(C)=O [COH-SR1, 1,7-bis(4′-acetoxy-3′-methoxyphenyl)-3,5-heptadione]
3T3-L1 cells [1]
  differentiation and accumulation of lipid droplets (Oil Red O staining): dose-dependently inhibited differentiation and accumulation of lipid droplets
3T3-L1 cells [3]
  intracellular triglyceride contents (AdipoRed Assay): dose-dependently reduced

## COc1cc(/C=C/C(=O)/C=C(O)/C=C/c2ccc(OC(C)=O)c(OC)c2)ccc1O [COH-SR2, (1E,4Z,6E)-7-(4″-acetoxy-3″-methoxyphenyl)-5-hydroxy-1-(4′-hydroxy-3′-methoxyphenyl)hepta-1,4,6-trien-3-one]
[4]
  activity in NCI-60 screening: active against
3T3-L1 cells [1]
  differentiation and accumulation of lipid droplets (Oil Red O staining): dose-dependently inhibited differentiation and accumulation of lipid droplets
3T3-L1 cells [3]
  intracellular triglyceride contents (AdipoRed Assay): dose-dependently reduced
[5]
  growth of undifferentiated preadipocytes (MTT): inhibited growth of undifferentiated 3T3-L1 cells

## O=C(Nc1ccc(Cl)c(Cl)c1)Nc1ccc(Cl)c(Cl)c1 [COH-SR3, 1,3-bis(3,4-dichlorophenyl)urea]
[4]
  activity in NCI-60 screening: active against
3T3-L1 cells [1]
  differentiation and accumulation of lipid droplets (Oil Red O staining): dose-dependently inhibited differentiation and accumulation of lipid droplets
HL-60 cells [6]
  cytotoxicity and cell proliferation: exhibited cytotoxicity and prevented cell proliferation of HL-60 leukemia cells
  IC50: < 5 µM
HL-60 cells [7]
  morphologic changes (Giemsa-Wright stain), myeloid differentiation: exhibited cytoplasmic vacuolation, reduced nucleus-to-cytoplasmic ratio, and absence of prominent nucleoli
[2]
  dedifferentiation of fully differentiated adipocytes: induced dedifferentiation of fully differentiated adipocytes
3T3-L1 cells [3]
  intracellular triglyceride contents (AdipoRed Assay): dose-dependently reduced
[5]
  growth of undifferentiated preadipocytes (MTT): inhibited growth of undifferentiated 3T3-L1 cells
[8]
  cytotoxic effects compared with doxorubicin, paclitaxel and cisplatin (FIG. 30): more potent cytotoxic effects

## COc1ccc(-c2ccccc2)cc1NC(=O)Nc1cc(Cl)cc(Cl)c1 [COH-SR6, 1-(3,5-dichlorophenyl)-3-(4-methoxy-[1,1′-bisphenyl]-3-yl) urea]
[4]
  activity in NCI-60 screening: active against
HL-60 cells [6]
  cytotoxicity and cell proliferation: exhibited cytotoxicity and prevented cell proliferation of HL-60 leukemia cells
HL-60 cells [7]
  morphologic changes (Giemsa-Wright stain), myeloid differentiation: exhibited cytoplasmic vacuolation, reduced nucleus-to-cytoplasmic ratio, and absence of prominent nucleoli

## CC(C)(Oc1ccc(NC(=O)Nc2cc(Cl)cc(Cl)c2)cc1)C(=O)Nc1ccc(C(=O)O)cc1 [COH-SR7, 4-[(3,5-dichlorophenylureido)phenoxyisobutyril]-4-aminobenzoic acid]
3T3-L1 cells [1]
  differentiation and accumulation of lipid droplets (Oil Red O staining): dose-dependently inhibited differentiation and accumulation of lipid droplets
HL-60 cells [7]
  morphologic changes (Giemsa-Wright stain), myeloid differentiation: exhibited cytoplasmic vacuolation, reduced nucleus-to-cytoplasmic ratio, and absence of prominent nucleoli
[2]
  dedifferentiation of fully differentiated adipocytes: induced dedifferentiation of fully differentiated adipocytes
3T3-L1 cells [3]
  intracellular triglyceride contents (AdipoRed Assay): dose-dependently reduced
[5]
  growth of undifferentiated preadipocytes (MTT): inhibited growth of undifferentiated 3T3-L1 cells

## Cc1c(Cl)cc(NC(=O)Nc2cc(Cl)cc(Cl)c2)cc1Cl [COH-SR14, 1-(3,5-dichloro-4-methylphenyl)-3-(3,5-dichlorophenyl) urea]
[4]
  activity in NCI-60 screening: active against
HL-60 cells [6]
  IC50: < 5 µM
[8]
  cytotoxic effects compared with doxorubicin, paclitaxel and cisplatin (FIG. 30): more potent cytotoxic effects

## O=C(Nc1cc(Cl)cc(Cl)c1)Nc1cc(Cl)nc(Cl)c1 [COH-SR16, 1-(2,6-dichloropyridin-4-yl)-3-(3,5-dichlorophenyl) urea]
[4]
  activity in NCI-60 screening: active against
AMPK
  AMPK activation: Dose-dependent AMPK activation

## O=C(Nc1cc(Cl)cc(Cl)c1)Nc1ccnc(Cl)n1 [COH-SR18, 1-(2-chloropyrimidin-4-yl)-3-(3,5-dichlorophenyl) urea]
AMPK
  AMPK activation: Dose-dependent AMPK activation

## CCc1c2c(nc3ccc(OC(=O)N4CCC(N5CCCCC5)CC4)cc13)-c1cc3c(c(=O)n1C2)COC(=O)[C@]3(O)CC [CPT-11, irinotecan]
U251; Homo sapiens, U-251, 72 h
  IC50: 41.1 µM

## CC(C)(Oc1ccc(NC(=O)Nc2cc(Cl)cc(Cl)c2)cc1)C(=O)NC1(C(=O)O)CCCCC1 [LR23, 4-(3,5-dichlorophenylureido)phenoxyisobutyryl-1-amidocyclohexane-lcarboxylic acid]
3T3-L1 cells [1]
  differentiation and accumulation of lipid droplets (Oil Red O staining): dose-dependently inhibited differentiation and accumulation of lipid droplets
3T3-L1 cells [3]
  intracellular triglyceride contents (AdipoRed Assay): dose-dependently reduced

## CCc1c2c(nc3ccc(O)cc13)-c1cc3c(c(=O)n1C2)COC(=O)[C@]3(O)CC [SN-38, 7-ethyl-10-hydroxy-camptothecin]
U251; 72 hours
  IC50: 0.04 µM
